Results as given in publication PMC9787607, “A Novel Protocol for the Synthesis of 1,2,4-Oxadiazoles Active against Trypanosomatids and Drug-Resistant Leukemia Cell Lines” (Tropical Medicine and Infectious Disease, 2022).

Key:
[1] = Cytotoxicity to BALB/c mouse total splenocytes (MTT); format: cell-based; conditions: male, total splenocytes (primary), 100 μM, 48 h, compared to the untreated control (Table S1)
Method: BALB/c mouse total splenocytes were harvested from male mice between 6–8 weeks old. After euthanasia, the spleens were removed and macerated in DMEM. After centrifugation, the cells were treated with hemolytic ACK buffer at 37 °C for 5 min. […] After incubation for 48 h at 37 °C in 5% CO2, cell viability was determined after the addition of 20 µL per well of a solution containing MTT salt (3.0 mM) and phenazine metasulphate (0.72 mM). After further incubation for 1 h at 37 °C, the medium was removed, and DMSO was added to dissolve the dark-blue formazan crystals formed by MTT reduction. Absorbance was measured on a microplate reader at 570 nm.
(§1) The percent cell or parasite viability was calculated by the formula: % viability = [(A − P)/(N − P)] × 100, A = absorbance of specific well, P = positive control, N = negative control. Determination of half-maximal effective concentrations (EC50), calculated by logarithmic regression, and significance analysis (p < 0.05), using ANOVA and Dunnett’s test, by GraphPad Prism 7.0 software. The results are expressed as the mean and standard deviation (SD) of three independent experiments.

Lucena-1 (K562/VCR) = experiment: cells; format: cell-based, human; conditions: for EC50: Homo sapiens, Lucena 1, 72 h, read-out: EC50 Lucena-1; for RR (relative resistance) Lucena-1: (EC50 MDR cells)/(EC50 parental cells), Lucena-1/K562
Method: (§2) The CML cell lines K562, Lucena-1 (K562/VCR), and FEPS (K562/DNR) were cultured in RPMI-1640 medium supplemented with 25 mM HEPES and 2 g L^−1 sodium bicarbonate adjusted to pH 7.4 with NaOH, 100 U penicillin and […] streptomycin. All media were supplemented with 10% FBS. Dr. Vivian M. Rumjanek (Instituto de Bioquímica Médica, UFRJ, Brazil) kindly donated Lucena-1 and FEPS cells. Briefly, K562 cells were exposed to increasing concentrations of the chemotherapeutic drugs vincristine sulfate (VCR) and daunorubicin hydrochloride (DNR) (both from Sigma-Aldrich), as described previously. Lucena-1 (K562/VCR) and FEPS (K562/DNR) cells were cultured in the presence of either 60 nM VCR or 500 nM DNR to maintain the MDR phenotypes. For subcultures, cells were harvested every three days followed by washing with cold FBS, and a final concentration of 2 × 10^4 cells mL^−1 was maintained at 37 °C in 5% CO2.
(§3) Cell viability was determined by the 3-(4,5-dimethylthiazol-2-yl)-2,5-diphenyltetrazolium (MTT) colorimetric assay. CML cells (2 × 10^4 cells·mL^−1) were incubated for 72 h at 37 °C, followed by treatment with compounds at a range of concentrations (100–1 μM). Negative controls were prepared with 0.5% DMSO. An MTT salt solution was added to each well to a final concentration of 0.5 g·L^−1, and plates were incubated at 37 °C in 5% CO2 for 3 h. After centrifugation, 200 μL DMSO was added to dissolve the dark-blue formazan crystals formed by MTT reduction. Absorbance was measured on a microplate reader at 570 nm, which is directly proportional to formazan contents and indicative of living cells.
as §1

[2] = Cytotoxicity to LLC-MK2 host cells (MTT); format: cell-based; conditions: rhesus monkey, screening at 50 μM, 120 h
Method: LLC-MK2 kidney fibroblasts (ATCC) and RAW 264.7 macrophages (ATCC) were cultivated in culture flasks in complete DMEM with 5% FBS at 37 °C in 5% CO2. The LLC-MK2 cell monolayer was detached by treatment with trypsin-EDTA 0.05% for 5 min at 37 °C. The RAW cell monolayer was detached mechanically. In both cases, the cells were centrifuged at 480× g for 6 min and resuspended in complete DMEM with 5% FBS, and the cell density was determined by counting with trypan-blue dye exclusion on Neubauer chambers before use.
LLC-MK2 cells were seeded in a 96-well microplate (1.0 × 10^4 cells per well) in complete DMEM with 5% FBS (120 µL per well). After incubation for 24 h at 37 °C in 5% CO2, the medium was renewed, and compounds were added at a range of concentrations in triplicate (50 μM or 100–1 μM). Untreated cells and cells treated with DMEM and 10% DMSO were used as negative and positive controls, respectively. Vehicle control containing DMEM and 0.3% DMSO was maintained for comparison. After incubation for 120 h at 37 °C in 5% CO2, the medium was renewed, and MTT salt solution in PBS was added (3.0 mM, 20 µL per well). After incubation for 2 h at 37 °C in 5% CO2, the supernatant was removed, and MTT formazan was dissolved in DMSO (150 µL per well). Absorbance was measured using a microplate reader at 570 nm.
as §1

K562 = experiment: MTT cytotoxicity to CML cell line K562; format: cell-based; conditions: Homo sapiens, 72 h
Method: as §2, §3, §1

[3] = test system: T. cruzi amastigotes (Tulahuen C2C4 LacZ strain); experiment: microbe, parasite or virus in culture; format: cell-based, Trypanosoma cruzi; conditions: Trypanosoma cruzi, TULAHUEN, LLC-MK2, 120 h, screening at 50 μM, 120 h, compared with untreated controls
Method: To a monolayer of 1.0 × 10^7 LLC-MK2 cells in a 150 cm^2 culture flask were added 5.0 × 10^7 trypomastigotes of T. cruzi expressing the […] (Tulahuen C2C4 LacZ) in complete DMEM with 2.5% FBS. The infection was allowed to occur for 24 h, the supernatant was removed, and the cell monolayer was washed with PBS. Complete DMEM with 2.5% FBS was renewed every 2 days up to the sixth day after infection. Trypomastigote forms were collected daily from the supernatant between days 7 and 12 after infection, enriched by differential centrifugation (1500× g for 10 min, 5580× g for 20 min), and resuspended in complete DMEM with 5% FBS. Parasite density was determined by counting the mobile trypomastigotes on Neubauer chambers before use.
. The medium was renewed, and trypomastigote forms of T. cruzi (Tulahuen C2C4 LacZ strain, 2.0 × 10^5 parasites per well) were added. After incubation for 24 h at 37 °C in 5% CO2, the cell monolayer was washed with PBS to remove noninternalized parasites. DMEM without phenol red and 5% FBS was added, and infected cells were treated with compounds at a range of concentrations in triplicate (50 μM or 100–1 μM). Untreated infected cells and noninfected LLC-MK2 cells were used as negative and positive controls, respectively. Vehicle control containing DMEM without phenol red and 0.3% DMSO was maintained for comparison. After incubation for 120 h at 37 °C in 5% CO2, a solution containing […] and 0.8% IGEPAL CA-630 in PBS (30 µL per well), followed by further incubation for 2 h at 37 °C in 5% CO2. Absorbance was measured using a microplate reader at 570 nm.
as §1

FEPS (K562/DNR) = experiment: MTT cytotoxicity to MDR CML cell line FEPS; format: cell-based, human; conditions: for EC50: Homo sapiens, K562, 72 h, MTT; for RR (relative resistance) FEPS: (EC50 MDR cells)/(EC50 parental cells), FEPS/K562
Method: as §2, §3, §1

[4] = test system: L. amazonensis promastigotes; experiment: Anti-L. amazonensis promastigote assessment (MTT); format: cell-based; conditions: Leishmania amazonensis; 48 h, MTT; read-out: EC50 L. amazonensis promastigotes
Method: Promastigotes of L. amazonensis (MHOM/BR/75/Josefa) were cultured in Schneider’s insect medium (SIM) with 10% FBS. Parasites were harvested at the stationary growth phase for assessment against promastigotes and 24 h after cultures reached the stationary growth phase for infection assays. […]. Complete SIM media and amphotericin B (AmB) at 10 µM were used as negative and positive controls, respectively. A vehicle control containing SIM with 10% SFB media and 0.3% DMSO was maintained for comparison. The final volume of the experiment was 100 µL. After incubation for 48 h at 27 °C, MTT salt solution in PBS was added (3.0 mM, 20 µL per well). After incubation for 2 h at 27 °C, the MTT formazan was dissolved by adding 120 µL of solubilizing buffer (50% isopropanol, 40% acetate buffer pH 5.4, 10% Triton-X). Absorbance was measured using a microplate reader at 570 nm.
as §1

[5] = LLC-MK2 cells (kidney fibroblasts)

| Structure (SMILES) | viability at 48 h, 100 µM [1] | EC50 (Lucena-1 (K562/VCR)) | viability at 120 h, 50 µM [2, 5] | EC50 (K562) | viability at 50 µM [3] | EC50 (FEPS (K562/DNR)) | EC50 [4] | melting point | RR (relative resistance) FEPS (FEPS (K562/DNR)) | RR (relative resistance) Lucena-1 (Lucena-1 (K562/VCR)) | viability at 120 h, 50 µM [2] |
| --- | --- | --- | --- | --- | --- | --- | --- | --- | --- | --- | --- |
| C(=C\c1nc(-c2ccccc2)no1)/c1ccccc1 [Compound 9, (E)-3-phenyl-5-[2-phenylvinyl]-1,2,4-oxadiazole] | 102 ± 7.4% | > 100 µM | 87.2 ± 4% | > 100 µM | 87 ± 4.9% | > 100 µM | 74.5 ± 4.9 µM | – | – | – | – |
| COc1cccc(/C=C/c2nc(-c3ccccc3)no2)c1 [Compound 10, (E)-3-phenyl-5-[2-(3-methoxyphenyl)vinyl]-1,2,4-oxadiazole] | 85.4 ± 4% | > 100 µM | 86.6 ± 3.6% | > 100 µM | 77.7 ± 6.3% | > 100 µM | 50.8 ± 6.3 µM | 88 to 90 °C | – | – | – |
| COc1ccc(/C=C/c2nc(-c3ccccc3)no2)cc1 [Compound 11, (E)-3-phenyl-5-[2-(4-methoxyphenyl)vinyl]-1,2,4-oxadiazole] | 84.4 ± 2.9% | > 100 µM | 77.4 ± 4% | > 100 µM | 86.2 ± 5.3% | 58.8 ± 6.1 µM | > 100 µM | 132 to 135 °C | <0.59 | – | – |
| C(=C\c1nc(-c2ccccc2)no1)/c1ccc2c(c1)OCO2 [Compound 13, (E)-3-phenyl-5-[2-(3,4-methylenedioxy-phenyl)vinyl]-1,2,4-oxadiazole] | 98.8 ± 5.1% | 46.5 ± 1.9 µM | 75.9 ± 1.3% | 92.3 ± 4.2 µM | 72 ± 3.7% | 68.5 ± 8.7 µM | > 100 µM | 157 to 159 °C | 0.74 | 0.50 | – |
| C(=C\c1nc(-c2ccccc2)no1)/c1ccc2c(c1)OCCO2 [Compound 14, (E)-3-phenyl-5-[2-(3,4-ethylenedioxy-phenyl)vinyl]-1,2,4-oxadiazole] | 93.6 ± 5.9% | 64 ± 3.2 µM | 84.5 ± 4.6% | > 100 µM | 60.5 ± 3.8% | 41.1 ± 4.9 µM | 92.5 ± 3.8 µM | 143 to 145 °C | <0.41 | <0.64 | – |
| C(=C\c1nc(-c2ccccc2)no1)/c1ccco1 [Compound 16, (E)-3-phenyl-5-[2-fur-2-yl-vinyl]-1,2,4-oxadiazole] | 53.5 ± 5.2% | 65 ± 9.6 µM | 89.2 ± 1.4% | 52.8 ± 17.7 µM | 83 ± 3.7% | 54.7 ± 1.7 µM | 47.1 ± 3.7 µM | 83 to 85 °C | 1.03 | 1.23 | – |
| C(=C\c1cccs1)/c1nc(-c2ccccc2)no1 [Compound 17, (E)-3-phenyl-5-[2-thiophen-2-yl-vinyl]-1,2,4-oxadiazole] | 99 ± 8.4% | 71.9 ± 0.6 µM | – | > 100 µM | 69.6 ± 6.3% | 55.7 ± 17.2 µM | 77.6 ± 6.3 µM | 93 to 95 °C | <0.56 | <0.72 | 86.2 ± 7.1% |
| Fc1ccc(/C=C/c2nc(-c3ccccc3)no2)cc1 [Compound 18, (E)-3-phenyl-5-[2-(4-fluorophenyl)vinyl]-1,2,4-oxadiazole] | 102 ± 11.5% | 59.9 ± 12.2 µM | 90.7 ± 4.3% | > 100 µM | 82.8 ± 4.7% | 66.7 ± 9.6 µM | > 100 µM | – | <0.67 | <0.59 | – |
| Clc1ccc(/C=C/c2nc(-c3ccccc3)no2)cc1 [Compound 19, (E)-3-phenyl-5-[2-(4-chlorophenyl)vinyl]-1,2,4-oxadiazole] | 90.5 ± 5.3% | 43.4 ± 3.4 µM | 77.8 ± 0.9% | 47.1 ± 1.2 µM | 83.4 ± 5.9% | > 100 µM | > 100 µM | – | >2.12 | 0.92 | – |
| O=[N+]([O-])c1ccc(/C=C/c2nc(-c3ccccc3)no2)cc1 [Compound 20, (E)-3-phenyl-5-[2-(4-nitrophenyl)vinyl]-1,2,4-oxadiazole] | 77.8 ± 4.2% | 45.7 ± 4.3 µM | 78.2 ± 2.1% | 34.4 ± 7.4 µM | 74.5 ± 5.4% | 46.4 ± 4.9 µM | > 100 µM | 205 to 208 °C | 1.35 | 1.33 | – |
